We go through one molecule from publication PMC11477167, “Structure–Function Relationship of a Novel MTX-like Peptide (MTX1) Isolated and Characterized from the Venom of the Scorpion Maurus palmatus” (International Journal of Molecular Sciences, 2024).

Series [1] has as its system C57BL/6 mice. Kind of series: Neurotoxic activity in mice by intracerebroventricular injection (LD50). In kind it is in vivo, mouse. As to the method:
4.5. The Neurotoxic Activity of MTX1 in Mice
To assess the LD50 of the MTX1, different doses of the peptide were administered to males C57BL/6 mice (20 ± 2 g) by an intracerebroventricular injection under ether anesthesia, which is considered the most sensitive route for scorpion toxins in mammals. Each dose was suspended/diluted in 5 μL of 0.1% (w/v) BSA and tested on six mice. Symptoms of toxicity were observed and recorded over a 24 h period. The median lethal dose (LD50) corresponds to the dose required to kill half of the tested mice.

For series [2], the system named is anti-MTX mice polyclonal antibodies. Kind of series: ELISA cross-antigenicity with anti-MTX serum. The class given is binding, mouse. As to the method:
Upon retrieval of pre-immune serum via retro-orbital puncture, 30 µg of MTX1 or saline (0.9% NaCl) in complete Freund’s adjuvant was subcutaneously administered to 6-week-old mice on day 1. Subsequent booster injections of incomplete Freund’s adjuvant were administered 15 and 25 days later. On […], the mice were bled and used for ELISA experiments in 96-well microtitration plates (catalog number M5785-1CS Sigma Aldrich, MO, USA). […] The optimal dilution of the immune serum resulting in half-maximum binding of MTX to its specific antiserum was determined to be 1/100,000.
The specificity of anti-MTX against MTX1 and CHTX toxins was assessed using ELISA. One hundred microliters of 5 μg/mL of antigen (MTX1 and CHTX) in 0.1 M sodium bicarbonate buffer at pH 9.6 were adsorbed on 96-well NUNC plates for 90 min at 37 °C. […] Finally, 200 μL of 0.4 mg/mL OPD in citrate buffer (pH 5.2 containing H2O2 (0.03%) was added to each well, followed by a 5 min incubation in the dark at room temperature. The reaction was halted by adding 50 μL of 2 N sulfuric acid. The absorbance at 492 nm was measured using a spectrophotometer (Thermo-Multiskan EX, Shanghai, China). The immune serum titer corresponded to the dilution that yielded 50% of the maximum absorbance.
On the technique in general: An ELISA detects its analyte on a solid surface through an enzyme-linked reagent.

“Also recorded” adds a separate entry of the source. Bridge positions count the residues as written; N and C are the ends. Peptide text beside a SMILES is read from it.

As for `CSCC[C@@H]1NC(=O)[C@@H]2CSSC[C@H](NC(=O)[C@H](CO)NC(=O)[C@@H](N)C(C)C)C(=O)N[C@@H]([C@@H](C)O)C(=O)NCC(=O)N[C@@H](CO)C(=O)N[C@@H](CCCCN)C(=O)N[C@@H](CCC(=O)O)C(=O)N[C@@H](CSSC[C@@H](C(=O)N[C@@H](CCCCN)C(=O)N[C@H]3CSSC[C@@H](C(N)=O)NC(=O)CNC(=O)[C@H](Cc4ccc(O)cc4)NC3=O)NC(=O)[C@H](CCCCN)NC(=O)[C@H](CCCNC(=N)N)NC(=O)[C@H](CC(N)=O)NC1=O)C(=O)N[C@@H](Cc1ccc(O)cc1)C(=O)N[C@@H](C)C(=O)N1CCC[C@H]1C(=O)N[C@H]1CSSC[C@H](NC(=O)CNC(=O)[C@H]([C@@H](C)O)NC(=O)[C@H](CCC(N)=O)NC(=O)[C@H](CCCCN)NC(=O)[C@H](CCCCN)NC1=O)C(=O)N1CCC[C@H]1C(=O)N[C@@H](CC(N)=O)C(=O)N[C@@H](C)C(=O)N[C@@H](CCCCN)C(=O)N2` [MTX1] (H-VSCTGSKECYAPCKKQTGCPNAKCMNRKCKCYGC-NH2; disulfide 3-24, 9-29, 13-19, 31-34; N-terminus and C-terminus assumed), the “Toxicity in mice (qualitative)” value in series [1] (i.c.v. injection) is “highly toxic”. Besides, the “Toxicity in mice relative to MTX” value in series [1] (i.c.v., LD50 comparison with MTX) was “approximately eight times more lethal than MTX; also recorded: eight times more effectively than MTX; also recorded: eight times more toxicity than MTX”. In addition, the “Dose with maximum fatality rate” value in series [1] (i.c.v., doses 4, 6, 8, 10, 15 and 20 ng, six mice each) amounted to 20 ng. Further, in series [1] (i.c.v., doses 4–20 ng), the Time to death was found to be 10 min. Moreover, the LD50 in series [1] (i.c.v., male C57BL/6 mice (20 ± 2 g), six mice per dose, 4–20 ng, observed 24 h) came out at 10 ng per mouse; in series [1] (i.c.v., mice), 0.01 μg/mouse. The “Recognition by anti-MTX antibodies” value in series [2] (different dilutions of anti-MTX mice polyclonal antibodies) is recorded as “well recognized by anti-MTX antibodies; also recorded: distinctly recognized”. Moreover, in series [2] (plates coated with 5 µg/mL antigen), the “IC50 of anti-MTX serum binding relative to MTX” value is “identical”.
